These results are taken from paper PMC8245078, “Development of novel benzofuran-isatin conjugates as potential antiproliferative agents with apoptosis inducing mechanism in Colon cancer” (Journal of Enzyme Inhibition and Medicinal Chemistry, 2021).

In test [1] the test system is HT-29 colorectal cancer cell line. Nature of the test: MTT cell viability assay. The class given is cell-based, human. Conditions: for inhibition of HT-29 cancer cells viability: 10 µM, 24 h, MTT. On the procedure: (§1) In the present investigation a new set of benzofuran–isatin hybrids (5a–e and 7a–i) was synthesised to be evaluated for their potential anticancer activity towards two human colorectal cancer cell lines, SW-620 and HT-29. […] Both, SW-620 and HT-29 cells were treated with 10 µM of each compound for 24 h and the percent cell viability was calculated using MTT assay.
(§2) For this reason, compounds 5a and 5d were pursued for further studies. Starting with determination of IC50s and cytotoxic selectivity studies. Serial concentrations of compounds 5a and 5d were used to examine their impact on cell viability using MTT protocol. Results of concentration vs percent viability were charted, and the IC50 was calculated for SW-620 and HT-29 cell lines using Graph Pad prism 8 (Figure 4). […]
(§3) [(Ti-Tz)/Tz] x 100 for concentrations for which Ti<Tz […]
(§4) SW620 and HT29 colorectal cancer cell lines and HFF-1 fibroblast (ATCC, Rockville, USA) were used. HT29 cells were cultured and maintained in Dulbecco’s Modified Eagles Medium (DMEM) (GIBCO, by Thermo Fischer Scientific, NY, USA) supplemented with 10% fetal bovine serum (FBS), 100 units/mL penicillin, and 100 μg streptomycin. SW620 and HFF-1 cells were cultured in Roswell Park Memorial Institute medium (RPMI-1640) (GIBCO, by Thermo scientific, NY, USA) supplemented with 10% FBS and 1% penicillin and streptomycin (Napolitano et al., 2015). All cultures were incubated at 37 °C and humidified atmosphere of 5% […]
(§5) 2.3. Cell Viability Assay
(§6) The cytotoxicity effect of compounds on the colorectal cancer cell lines, SW620 and HT29 in addition to the normal human fibroblasts was measured by MTT (3-(4, 5-dimethylthiazol-2-yl)-2,5-diphenyltetrazolium bromide) (Sigma-Aldrich, St. Louis, MO, USA) as previously described. Briefly, cells were seeded in 96 well culture plates at 5000/well for HT29 and 10,000/well for SW620 for 24 h. Cells were then incubated with different compounds from WAG1 series (1-15) 24h at 37 °C and humidified 5% CO2 incubator. Freshly prepared 10 μl of 3-(4,5-dimethylthiazol-2-yl)-2,5-diphenyltetrazolium bromide (MTT 5 mM) solution were added to the cells and further incubated for 2 h. Thereafter, 100 μl of dimethyl sulfoxide (DMSO) were added in each well and the crystals were dissolved through careful pipetting. […]
VA, USA). The experiments were performed in triplicate for each condition. […]
(§7) The total protein concentration was evaluated by the colorimetric
(§8) Bradford protein assay (BIO-RAD inc, CA, USA) at 595 nm absorbance. Lysates were loaded in […]
(Tetrazolium dyes change colour on reduction, which living cells bring about.)

In test [2] the test system is SW-620 colorectal cancer cell line. Briefly: MTT cell viability assay. The settings on record: Homo sapiens, SW-620, SW-620, MTT. The class given is cell-based, human. On the procedure: as §1, §2, §3, §4, §5
as §6, with “pipetting. In certain experiment, cells were treated different concentration of 5FU for 72 h. The absorbance of the product was measured at 540 nm using a Synergy™ 2 multi-mode microplate reader (Biotech, VA, USA). The experiments were performed in triplicate for each condition.” for “pipetting.”
as §7, §8

`Cc1c(C(=O)N/N=C2\C(=O)N(Cc3ccc(F)cc3)c3ccccc32)oc2ccccc12` [Compound 7e]: the “inhibition of HT-29 cancer cells viability” value (“inhibition” below) in test [1] is > 50%.
Same read-out and setting: under `Cc1c(C(=O)N/N=C2\C(=O)N(Cc3ccc(F)cc3)c3ccc(Br)cc32)oc2ccccc12` [Compound 7i] stands > 50%.
For the compound `Cc1c(C(=O)N/N=C2\C(=O)N(Cc3ccccc3)c3ccc(Br)cc32)oc2ccccc12` [Compound 7h], the “inhibition” value in test [1] is given as > 50%.
The IC50 is the concentration at which inhibition is half-maximal. As to `CCc1c2c(nc3ccc(OC(=O)N4CCC(N5CCCCC5)CC4)cc13)-c1cc3c(c(=O)n1C2)COC(=O)[C@]3(O)CC` [Irinotecan, reference compound], the IC50 is 1 µM in test [2] and 6.18 µM in test [1] (Homo sapiens, HT-29, HT-29, MTT).
In the case of `C=CCN1C(=O)/C(=N\NC(=O)c2oc3ccccc3c2C)c2ccccc21` [Compound 7c], in test [1], the “inhibition” value is listed as > 50%.
